What was measured:
[1] = Cytotoxicity against human SF295 cells after 72 hrs by MTT assay; assay type: functional, cell-based, SF-295
MDA-MB-435 = experiment: Cytotoxicity against human MDA-MB-435 cells after 72 hrs by MTT assay; assay type: functional, cell-based
[2] = Cytotoxicity against human HCT8 cells after 72 hrs by MTT assay; assay type: functional, cell-based, HCT-8
[3] = Cytotoxicity against human HL60 cells after 72 hrs by MTT assay; assay type: functional, cell-based, HL-60

O=C1C(O)=C(C(NCc2ccco2)c2ccccc2O)C(=O)c2ccccc21 (centres undefined)
IC50 ([1]; sf-295): 1.8 µM
IC50 (MDA-MB-435; mda-mb-435): 2.9 µM
IC50 ([2]; hct-8): 3 µM
IC50 ([3]; hl-60): 1.2 µM

CC(C)(C)OC(=O)NCCNC(C1=C(O)C(=O)c2ccccc2C1=O)c1cccc(O)c1 (centres undefined)
IC50 ([1]; Homo sapiens, SF-295, 72 h): > 40 µM
IC50 (MDA-MB-435; Homo sapiens, MDA-MB-435, 72 h): > 40 µM
IC50 ([2]; Homo sapiens, HCT-8, 72 h): > 40 µM
IC50 ([3]; Homo sapiens, HL-60, 72 h): > 40 µM

O=C1C(O)=C(C(NCCCCl)c2ccccc2O)C(=O)c2ccccc21 (centres undefined)
IC50 ([1]; Homo sapiens, SF-295, 72 h): 17.5 µM
IC50 (MDA-MB-435; Homo sapiens, MDA-MB-435, 72 h): 30.1 µM
IC50 ([2]; Homo sapiens, HCT-8, 72 h): 17.7 µM
IC50 ([3]; Homo sapiens, HL-60, 72 h): 8.1 µM

O=C1C(O)=C(C(NCc2ccco2)c2ccccn2)C(=O)c2ccccc21 (centres undefined)
IC50 ([1]; Homo sapiens, SF-295, 72 h): 3.3 µM
IC50 (MDA-MB-435; Homo sapiens, MDA-MB-435, 72 h): > 40 µM
IC50 ([2]; Homo sapiens, HCT-8, 72 h): 4.4 µM
IC50 ([3]; Homo sapiens, HL-60, 72 h): 5.8 µM

CCCCNC(C1=C(O)C(=O)c2ccccc2C1=O)c1ccc(Cl)cc1Cl (centres undefined) [listing 1 of 2 here]
IC50 ([1]; Homo sapiens, SF-295, 72 h): > 40 µM
IC50 ([3]; Homo sapiens, HL-60, 72 h): > 40 µM

O=C1C(O)=C(C(NCCCCl)c2ccccc2)C(=O)c2ccccc21 (centres undefined)
IC50 ([1]; Homo sapiens, SF-295, 72 h): > 40 µM
IC50 (MDA-MB-435; Homo sapiens, MDA-MB-435, 72 h): > 40 µM
IC50 ([2]; Homo sapiens, HCT-8, 72 h): > 40 µM
IC50 ([3]; Homo sapiens, HL-60, 72 h): > 40 µM

O=C1C(O)=C(C(NCCCCl)c2ccc(Cl)cc2Cl)C(=O)c2ccccc21 (centres undefined)
IC50 ([1]; Homo sapiens, SF-295, 72 h): > 40 µM
IC50 (MDA-MB-435; Homo sapiens, MDA-MB-435, 72 h): > 40 µM
IC50 ([2]; Homo sapiens, HCT-8, 72 h): > 40 µM
IC50 ([3]; Homo sapiens, HL-60, 72 h): > 40 µM

CCCCNC(C1=C(O)C(=O)c2ccccc2C1=O)c1cc(Br)ccc1O (centres undefined)
IC50 ([1]; sf-295): > 40 µM
IC50 (MDA-MB-435; Homo sapiens, MDA-MB-435, 72 h): > 40 µM
IC50 ([2]; hct-8): > 40 µM
IC50 ([3]; hl-60): > 40 µM

CC(C)(C)OC(=O)NCCNC(C1=C(O)C(=O)c2ccccc2C1=O)c1ccccc1O (centres undefined)
IC50 ([1]; Homo sapiens, SF-295, 72 h): 15.9 µM
IC50 (MDA-MB-435; Homo sapiens, MDA-MB-435, 72 h): 26.3 µM
IC50 ([2]; Homo sapiens, HCT-8, 72 h): 10.8 µM
IC50 ([3]; Homo sapiens, HL-60, 72 h): 19.2 µM

CC(C)(C)OC(=O)NCCNCC1=C(O)C(=O)c2ccccc2C1=O
IC50 ([1]; Homo sapiens, SF-295, 72 h): > 40 µM
IC50 (MDA-MB-435; Homo sapiens, MDA-MB-435, 72 h): > 40 µM
IC50 ([2]; Homo sapiens, HCT-8, 72 h): > 40 µM
IC50 ([3]; Homo sapiens, HL-60, 72 h): > 40 µM

CCCCCCCNC(C1=C(O)C(=O)c2ccccc2C1=O)c1ccccn1 (centres undefined)
IC50 ([1]; Homo sapiens, SF-295, 72 h): 1 µM
IC50 (MDA-MB-435; Homo sapiens, MDA-MB-435, 72 h): > 40 µM
IC50 ([2]; Homo sapiens, HCT-8, 72 h): 1.6 µM
IC50 ([3]; Homo sapiens, HL-60, 72 h): 1.8 µM

CC(C)(C)OC(=O)NCCCNCC1=C(O)C(=O)c2ccccc2C1=O
IC50 ([1]; Homo sapiens, SF-295, 72 h): > 40 µM
IC50 (MDA-MB-435; Homo sapiens, MDA-MB-435, 72 h): > 40 µM
IC50 ([2]; Homo sapiens, HCT-8, 72 h): > 40 µM
IC50 ([3]; Homo sapiens, HL-60, 72 h): > 40 µM

CCCCCCCNC(C1=C(O)C(=O)c2ccccc2C1=O)c1cccc(O)c1 (centres undefined)
IC50 ([1]; Homo sapiens, SF-295, 72 h): > 40 µM
IC50 (MDA-MB-435; Homo sapiens, MDA-MB-435, 72 h): > 40 µM
IC50 ([2]; Homo sapiens, HCT-8, 72 h): > 40 µM
IC50 ([3]; Homo sapiens, HL-60, 72 h): > 40 µM

O=C1C(O)=C(C(NCCCCl)c2cccc(O)c2)C(=O)c2ccccc21 (centres undefined)
IC50 ([1]; Homo sapiens, SF-295, 72 h): > 40 µM
IC50 (MDA-MB-435; Homo sapiens, MDA-MB-435, 72 h): > 40 µM
IC50 ([2]; Homo sapiens, HCT-8, 72 h): > 40 µM
IC50 ([3]; Homo sapiens, HL-60, 72 h): > 40 µM

O=C1C(O)=C(C(NCCCCl)c2ccccn2)C(=O)c2ccccc21 (centres undefined)
IC50 ([1]; Homo sapiens, SF-295, 72 h): > 40 µM
IC50 (MDA-MB-435; Homo sapiens, MDA-MB-435, 72 h): > 40 µM
IC50 ([2]; Homo sapiens, HCT-8, 72 h): > 40 µM
IC50 ([3]; Homo sapiens, HL-60, 72 h): > 40 µM

O=C1C(O)=C(C(NCc2ccccc2)c2cc(Br)ccc2O)C(=O)c2ccccc21 (centres undefined)
IC50 ([1]; Homo sapiens, SF-295, 72 h): 17.4 µM
IC50 (MDA-MB-435; mda-mb-435): 25.2 µM
IC50 ([2]; hct-8): 14.9 µM
IC50 ([3]; Homo sapiens, HL-60, 72 h): 8.4 µM

CCCCNC(C1=C(O)C(=O)c2ccccc2C1=O)c1ccc([N+](=O)[O-])cc1 (centres undefined) [listing 1 of 2 here]
IC50 ([1]; Homo sapiens, SF-295, 72 h): > 40 µM
IC50 ([3]; Homo sapiens, HL-60, 72 h): > 40 µM

CC(C)(C)OC(=O)NCCCNC(C1=C(O)C(=O)c2ccccc2C1=O)c1ccccc1O (centres undefined)
IC50 ([1]; Homo sapiens, SF-295, 72 h): 26 µM
IC50 (MDA-MB-435; Homo sapiens, MDA-MB-435, 72 h): 37.8 µM
IC50 ([2]; Homo sapiens, HCT-8, 72 h): 22.7 µM
IC50 ([3]; Homo sapiens, HL-60, 72 h): 17.2 µM

CCCCNC(C1=C(O)C(=O)c2ccccc2C1=O)c1ccc(Cl)cc1Cl (centres undefined) [listing 2 of 2 here]
IC50 (MDA-MB-435; Homo sapiens, MDA-MB-435, 72 h): > 40 µM
IC50 ([2]; Homo sapiens, HCT-8, 72 h): > 40 µM

CC(C)(C)OC(=O)NCCCNC(C1=C(O)C(=O)c2ccccc2C1=O)c1ccc(Cl)cc1Cl (centres undefined)
IC50 ([1]; Homo sapiens, SF-295, 72 h): > 40 µM
IC50 (MDA-MB-435; Homo sapiens, MDA-MB-435, 72 h): 16.2 µM
IC50 ([2]; Homo sapiens, HCT-8, 72 h): 21.2 µM

CCCCNC(C1=C(O)C(=O)c2ccccc2C1=O)c1ccc([N+](=O)[O-])cc1 (centres undefined) [listing 2 of 2 here]
IC50 (MDA-MB-435; Homo sapiens, MDA-MB-435, 72 h): > 40 µM
IC50 ([2]; Homo sapiens, HCT-8, 72 h): > 40 µM

Cc1ccc(O)c(C(NCc2ccccc2)C2=C(O)C(=O)c3ccccc3C2=O)c1 (centres undefined)
IC50 ([1]; sf-295): 14.4 µM
IC50 (MDA-MB-435; Homo sapiens, MDA-MB-435, 72 h): 18.7 µM
IC50 ([2]; Homo sapiens, HCT-8, 72 h): 12.1 µM

COc1cccc2c1C(=O)c1c(O)c3c(c(O)c1C2=O)C[C@@](O)(C(=O)CO)C[C@@H]3O[C@H]1C[C@H](N)[C@H](O)[C@H](C)O1 [DOXORUBICIN]
IC50 ([1]; Homo sapiens, SF-295, 72 h): 0.39 µM
IC50 ([3]; Homo sapiens, HL-60, 72 h): 0.03 µM

O=C1C(O)=C(C(NCc2ccccc2)c2ccc([N+](=O)[O-])cc2)C(=O)c2ccccc21 (centres undefined) [listing 1 of 2 here]
IC50 ([1]; Homo sapiens, SF-295, 72 h): > 40 µM
IC50 ([3]; Homo sapiens, HL-60, 72 h): > 40 µM

O=C1C(O)=C(C(NCc2ccccc2)c2ccc([N+](=O)[O-])cc2)C(=O)c2ccccc21 (centres undefined) [listing 2 of 2 here]
IC50 (MDA-MB-435; Homo sapiens, MDA-MB-435, 72 h): > 40 µM
IC50 ([2]; Homo sapiens, HCT-8, 72 h): > 40 µM

— ChEMBL document CHEMBL3822389, “New insights into 3-(aminomethyl)naphthoquinones: Evaluation of cytotoxicity, electrochemical behavior and search for structure-activity correlation” (Bioorg Med Chem Lett, 2016)
